# Measurements published in patent US20160137968A1, “TISSUE CULTURE TESTING SYSTEMS AND METHODS OF USE” (Barry University, priority 2014, published 2016).
# Experiments:
# A. baumannii = experiment: Bioburden reduction in infected full-thickness skin tissue samples in Franz cells (total CFUs); type: cell-based; conditions: 1 ATM, 0.1 liters/minute
# Description: (§1) After an infection period is over, tissue samples can be homogenized, and serial dilutions can be grown on LB agar plates in order to facilitate the counting of colony formation units (CFUs), which approximate the level of bacteria present in the sample after infection. Other methods of quantifying infection and the various manifestations of infection are also possible, as would be recognized by one of ordinary skill in the art based on the present disclosure. For example, activation of various cytokines can be measured, as well as gene expression (upregulation and/or down regulation) of various genetic regulators of inflammatory and immune responses taking place in cells and tissues. These experimental procedures allow for the investigation of various experimental factors and perturbations, such as NO pressures, exposure times, and flow rates, in the context of skin infection and how they may influence bioburden reduction and wound healing.
# (§2) In FIG. 4, the growth curves of several pathogenic bacteria are shown, including MRSA, Acinetobacter and Pseudomonas. In order to determine whether a given set of experimental factors or perturbations relating to NO exposure reduces bioburden, tissue samples were infected with the same concentration of bacteria under the same experimental conditions. […] In some aspects, 15 μl of a bacterial culture is sufficient to infect a cell or tissue sample.
# (§3) Full-thickness skin tissue samples (e.g., EPIDERM tissue model from MatTek Corp., Ashland, Mass. 01721) were exposed to various experimental factors. […] The skin samples used were infected with S. aureus for 24 hours, followed by 90 minutes of pressurized exposure at a flow rate of 0.1 liters/minute.
# (§4) The samples used were infected with Staphylococcus, MRSA, Acinetobacter or Pseudomonas.
# (§5) Experiments were also conducted as described above in the previous examples to determine the minimum amount of exposure time necessary to obtain maximum reductions in bioburden. In some cases, determining the minimum tissue exposure time to gNO can reduce any potentially detrimental effects on the health of the tissue, while still reducing bioburden. Flow rate was maintained at 0.1 liters/minute, but the exposure time was shortened to 60 minutes at 1 ATM (independent of and in addition to the pressure applied by the external environment).
# P. aeruginosa = experiment: as above; type: cell-based; conditions: 1 ATM, 0.1 liters/minute
# Description: as §1, §2, §3, §4, §5
# MRSA = experiment: as above; type: cell-based; conditions: 1 ATM, 0.1 liters/minute
# Description: as §1, §2, §3, §4, §5
# [1] = system: full-thickness skin tissue samples; experiment: Tissue viability using MTT assays; type: cell-based, human
# Method: Experiments were also conducted to investigate the effects of various NO pressures, exposure times, and flow rates on tissue viability using MTT assays. An MTT assay is a colorimetric assay for assessing cell viability. NAD(P)H-dependent cellular oxidoreductase enzymes may, under defined conditions, reflect the number of viable cells present. These enzymes are capable of reducing the tetrazolium dye MTT 3-(4,5-dimethylthiazol-2-yl)-2,5-diphenyltetrazolium bromide to its insoluble formazan, which has a purple color. Other closely related tetrazolium dyes including XTT, MTS and the WSTs, can also be used. Tetrazolium-based dye assays can also be used to measure cytotoxicity (loss of viable cells) or cytostatic activity (shift from proliferation to quiescence) of potential medicinal agents and toxic materials.
# S. aureus = experiment: Bioburden reduction in infected full-thickness skin tissue samples in Franz cells (total CFUs); type: cell-based, Staphylococcus aureus; conditions: 0.1 liters/minute
# Description: as §1, §2, §3, §4, §5
# Experiments were also conducted as described above in the previous examples to determine the minimum amount of gNO pressure necessary to obtain maximum reductions in bioburden. In some cases, determining the minimum amount of gNO pressure can reduce any potentially detrimental effects on the health of the tissue, while still reducing bioburden.
smiles,measurement,setting,value
"[N]=O [gNO, Nitric Oxide]",log reduction in bioburden,"A. baumannii; A. baumannii, 1% NO, 90 min, infected 24 hours",5-6 log
same,reduction of bioburden compared to controls,"A. baumannii; A. baumannii, 60 minutes",effective
same,bacterial bioburden (CFUs),"A. baumannii; Acinetobacter, 1% NO, 120 minutes, 24 hours of infection",completely eliminated
same,log reduction in bioburden,"P. aeruginosa; P. aeruginosa, 1% NO, 90 min, infected 24 hours",5-6 log
same,reduction of bioburden compared to controls,"P. aeruginosa; P. aeruginosa, 60 minutes",effective
same,bacterial bioburden (CFUs),"P. aeruginosa; Pseudomonas, 1% NO, 120 minutes, 24 hours of infection",completely eliminated
same,bacterial bioburden (CFUs),"MRSA; 1% NO, 120 minutes, 24 hours of infection",completely eliminated
same,log reduction in bioburden,"MRSA; 1% NO, 90 min, infected 24 hours",5-6 log
same,reduction of bioburden compared to controls,MRSA; 60 minutes,did not show significant reduction of bioburden
same,tissue viability (MTT),"[1]; 1% NO with or without pressure, as exposure time decreased",viability increased
same,tissue viability (MTT),[1]; combination of pressurized gNO and increasing concentrations of NO,caused a decrease in viability
same,bioburden reduction,"S. aureus; NO at 0.25 ATM, 90 minutes, infected 24 hours",sufficient to reduce bioburden
same,bioburden reduction,"S. aureus; NO at 0.3 ATM, 90 minutes, infected 24 hours",sufficient to reduce bioburden
same,log reduction in bioburden,"S. aureus; S. aureus (biofilm-forming), 1% NO, 90 min, 1 ATM, infected 24 hours",~3 log
same,reduction of bioburden compared to controls,"S. aureus; S. aureus, 60 minutes, 1 ATM",did not show significant reduction of bioburden
same,bacterial bioburden (CFUs),"S. aureus; Staphylococcus, 1% NO, 1 ATM, 120 minutes, 24 hours of infection",completely eliminated
same,bioburden (total CFUs),"S. aureus; pressurized gNO at 1 ATM compared to 0 ATM, 90 minutes, infected 24 hours",did significantly reduce bioburden
